The results in this text go back to PMC5291411, “Cytotoxic conjugates of betulinic acid and substituted triazoles prepared by Huisgen Cycloaddition from 30-azidoderivatives” (PLoS ONE, 2017).

For the first experiment, the system named is HCT116. In words: Cytotoxic MTS assay, HCT116. The experiment is classed as cell-based. The following applies: Homo sapiens, HCT-116, 72 h, colorectal tumor. The text has this: (§1) Cytotoxic activity of all synthesized compounds was investigated in vitro against eight human cancer cell lines and two non-tumor fibroblasts using the standard MTS test (Table 1). The cancer cell lines were derived from T-lymphoblastic leukemia CCRF-CEM, leukemia K562 and their multiresistant counterparts expressing P-glycoprotein, MRP1 and LRP proteins (CEM-DNR, K562-TAX), solid tumors including lung (A549) and colon (HCT116, HCT116p53-/-) carcinomas, osteosarcoma cell line (U2OS), and for comparison, tests were performed on two human non-cancer fibroblast cell lines (BJ, MRC-5).
(§2) Biological assays were performed in concordance with our previous publications [[29], [58]; [60]; [61]]. All cells (if not indicated otherwise) were purchased from the American Tissue Culture Collection (ATCC). The CCRF-CEM line is derived from T lymphoblastic leukemia, evincing high chemosenzitivity, K562 represent cells from an acute myeloid leukemia patient sample with bcr-abl translocation, U2OS line is derived from osteosarcoma, HCT116 is colorectal tumor cell line and its p53 gene knock-down counterpart (HCT116p53-/-, Horizon Discovery Ltd, UK) is a model of human cancers with p53 mutation frequently associated with poor prognosis, A549 line is lung adenocarcinoma. The daunorubicin resistant subline of CCRF-CEM cells (CEM-DNR bulk) and paclitaxel resistant subline K562-TAX were selected in our laboratory by the cultivation of maternal cell lines in increasing concentrations of daunorubicine or paclitaxel, respectively. The CEM-DNR bulk cells overexpress MRP-1 and P-glycoprotein protein, while K562-TAX cells overexpress P-glycoprotein only. Both proteins belong to the family of ABC transporters and are involved in the primary and/or acquired multidrug resistance phenomenon. MRC-5 and BJ cell lines were used as a non-tumor control and represent human fibroblasts. The cells were maintained in nunc/corning 80 cm^2 plastic tissue culture flasks and cultured in cell culture medium according to ATCC or Horizon recommendations (DMEM/RPMI 1640 with 5 g/L glucose, 2 mM glutamine, 100 U/mL penicillin, […] streptomycin, 10% fetal calf serum, and NaHCO3).
(§3) MTS assay was performed at Institute of Molecular and Translational Medicine by robotic platform (HighResBiosolutions). Cell suspensions were prepared and diluted according to the particular cell type and the expected target cell density (25000–35000 cells/mL based on cell growth characteristics). Cells were added by automatic pipetor (30 μL) into 384 well microtiter plates. All tested compounds were dissolved in 100% DMSO and four-fold dilutions of the intended test concentration were added in 0.15 μL aliquots at time zero to the microtiter plate wells by the echoacustic non-contact liquid handler Echo550 (Labcyte). The experiments were performed in technical duplicates and three biological replicates at least. The cells were incubated with the tested compounds for 72 h at 37°C, in a 5% CO2 atmosphere at 100% humidity. At the end of the incubation period, the cells were assayed by using the MTS test. Aliquots (5 μL) of the MTS stock solution were pipetted into each well and incubated for additional 1–4 h. After this incubation period, the optical density (OD) was measured at 490 nm with an Envision reader (Perkin Elmer). Tumor cell survival (TCS) was calculated by using the following equation: TCS = (ODdrug-exposed well/mean ODcontrol wells) × 100%. The IC50 value, the drug concentration that is lethal to 50% of the tumor cells, was calculated from the appropriate dose-response curves in Dotmatics software.
On the technique in general: Tetrazolium assays rely on reduction of a dye to a coloured formazan, in cell work by metabolically active cells.
By IC50 is commonly meant the concentration that inhibits the measured activity by half. In turn, `C=C(C)[C@@H]1CC[C@]2(C(=O)O)CC[C@]3(C)[C@H](CC[C@@H]4[C@@]5(C)CC[C@H](O)C(C)(C)[C@@H]5CC[C@]43C)[C@@H]12` [Compound 1, betulinic acid] came in with a 50% inhibitory concentration (IC50) of 38 µM.
The compound `C=C(Cn1cc(-c2ccccc2)nn1)[C@@H]1CC[C@]2(C(=O)O)CC[C@]3(C)C(CCC4[C@@]5(C)CC[C@H](OC(C)=O)C(C)(C)C5CC[C@]43C)C12` (stereo partly drawn) [Compound 9a] registered an IC50 of 25.1 µM.
The same measure, in the same setting: next, `C=C(CN=[N+]=[N-])[C@@H]1CC[C@]2(C(=O)O)CC[C@]3(C)C(CCC4[C@@]5(C)CC[C@H](O)C(C)(C)C5CC[C@]43C)C12` (stereo partly drawn) [Compound 8, 30-azidobetulinic acid]: 25.5 µM.

In another experiment the test system is MRC-5. In words: Cytotoxic MTS assay, MRC-5 fibroblasts. The experiment is classed as cell-based. The following applies: Homo sapiens, MRC5, 72 h, non-tumor fibroblasts.
From the text: as §1, §2, §3
`C=C(C)[C@@H]1CC[C@]2(C(=O)O)CC[C@]3(C)[C@H](CC[C@@H]4[C@@]5(C)CC[C@H](O)C(C)(C)[C@@H]5CC[C@]43C)[C@@H]12` [Compound 1, betulinic acid]: the half-maximal inhibitory concentration (IC50) is 32.9 µM.
`C=C(Cn1cc(-c2ccccc2)nn1)[C@@H]1CC[C@]2(C(=O)O)CC[C@]3(C)C(CCC4[C@@]5(C)CC[C@H](OC(C)=O)C(C)(C)C5CC[C@]43C)C12` (stereo partly drawn) [Compound 9a] returned an IC50 of 32.4 µM.
As to `C=C(CN=[N+]=[N-])[C@@H]1CC[C@]2(C(=O)O)CC[C@]3(C)C(CCC4[C@@]5(C)CC[C@H](O)C(C)(C)C5CC[C@]43C)C12` (stereo partly drawn) [Compound 8, 30-azidobetulinic acid], 19.1 µM corresponded to half-maximal inhibition (IC50).

For the next experiment, the system named is HCT116p53-/-. In words: Cytotoxic MTS assay, HCT116p53-/-. The experiment is classed as cell-based. Particulars: Homo sapiens, 72 h, p53 knock-down colorectal tumor.
From the text: as §1, §2, §3
On to `C=C(C)[C@@H]1CC[C@]2(C(=O)O)CC[C@]3(C)[C@H](CC[C@@H]4[C@@]5(C)CC[C@H](O)C(C)(C)[C@@H]5CC[C@]43C)[C@@H]12` [Compound 1, betulinic acid], for which the IC50 was more than 50 µM.
Same read-out and setting: the same measure for `C=C(Cn1cc(-c2ccccc2)nn1)[C@@H]1CC[C@]2(C(=O)O)CC[C@]3(C)C(CCC4[C@@]5(C)CC[C@H](OC(C)=O)C(C)(C)C5CC[C@]43C)C12` (stereo partly drawn) [Compound 9a]: 31.1 µM; for `C=C(CN=[N+]=[N-])[C@@H]1CC[C@]2(C(=O)O)CC[C@]3(C)C(CCC4[C@@]5(C)CC[C@H](O)C(C)(C)C5CC[C@]43C)C12` (stereo partly drawn) [Compound 8, 30-azidobetulinic acid]: 24 µM.

Another experiment relates to U2OS. In words: Cytotoxic MTS assay, U2OS. Particulars: Homo sapiens, 72 h, osteosarcoma. The experiment is classed as cell-based.
From the text: as §1, §2, §3
For `C=C(C)[C@@H]1CC[C@]2(C(=O)O)CC[C@]3(C)[C@H](CC[C@@H]4[C@@]5(C)CC[C@H](O)C(C)(C)[C@@H]5CC[C@]43C)[C@@H]12` [Compound 1, betulinic acid], the IC50 was more than 50 µM.
Same read-out and setting: the same measure for `C=C(Cn1cc(-c2ccccc2)nn1)[C@@H]1CC[C@]2(C(=O)O)CC[C@]3(C)C(CCC4[C@@]5(C)CC[C@H](OC(C)=O)C(C)(C)C5CC[C@]43C)C12` (stereo partly drawn) [Compound 9a]: 24.8 µM; for `C=C(CN=[N+]=[N-])[C@@H]1CC[C@]2(C(=O)O)CC[C@]3(C)C(CCC4[C@@]5(C)CC[C@H](O)C(C)(C)C5CC[C@]43C)C12` (stereo partly drawn) [Compound 8, 30-azidobetulinic acid]: 25 µM.

The next experiment relates to K562. In words: Cytotoxic MTS assay, K562. The format is cell-based. The following applies: Homo sapiens, 72 h, leukemia.
From the text: as §1, §2, §3
For `C=C(C)[C@@H]1CC[C@]2(C(=O)O)CC[C@]3(C)[C@H](CC[C@@H]4[C@@]5(C)CC[C@H](O)C(C)(C)[C@@H]5CC[C@]43C)[C@@H]12` [Compound 1, betulinic acid], the half-maximal inhibitory concentration (IC50) worked out at 40 µM.
Consider `C=C(Cn1cc(-c2ccccc2)nn1)[C@@H]1CC[C@]2(C(=O)O)CC[C@]3(C)C(CCC4[C@@]5(C)CC[C@H](OC(C)=O)C(C)(C)C5CC[C@]43C)C12` (stereo partly drawn) [Compound 9a], for which the IC50 stood at 15.1 µM.
With `C=C(CN=[N+]=[N-])[C@@H]1CC[C@]2(C(=O)O)CC[C@]3(C)C(CCC4[C@@]5(C)CC[C@H](O)C(C)(C)C5CC[C@]43C)C12` (stereo partly drawn) [Compound 8, 30-azidobetulinic acid], the IC50 worked out at 17.2 µM.

Another experiment deals with CCRF-CEM. In words: Cytotoxic MTS assay, CCRF-CEM. The following applies: Homo sapiens, 72 h, T-lymphoblastic leukemia. The format is cell-based.
From the text: as §1, §2, §3
Regarding `C=C(C)[C@@H]1CC[C@]2(C(=O)O)CC[C@]3(C)[C@H](CC[C@@H]4[C@@]5(C)CC[C@H](O)C(C)(C)[C@@H]5CC[C@]43C)[C@@H]12` [Compound 1, betulinic acid], the half-maximal inhibitory concentration (IC50) was 45.5 µM.
On to `C=C(Cn1cc(-c2ccccc2)nn1)[C@@H]1CC[C@]2(C(=O)O)CC[C@]3(C)C(CCC4[C@@]5(C)CC[C@H](OC(C)=O)C(C)(C)C5CC[C@]43C)C12` (stereo partly drawn) [Compound 9a], for which the IC50 amounted to 13.4 µM.
In turn, `C=C(CN=[N+]=[N-])[C@@H]1CC[C@]2(C(=O)O)CC[C@]3(C)C(CCC4[C@@]5(C)CC[C@H](O)C(C)(C)C5CC[C@]43C)C12` (stereo partly drawn) [Compound 8, 30-azidobetulinic acid] showed a half-inhibitory concentration (IC50) of 21.7 µM.

Another experiment deals with K562-TAX. In words: Cytotoxic MTS assay, K562-TAX. The format is cell-based. The following applies: Homo sapiens, 72 h, paclitaxel resistant subline of K562.
From the text: as §1, §2, §3
The compound `C=C(C)[C@@H]1CC[C@]2(C(=O)O)CC[C@]3(C)[C@H](CC[C@@H]4[C@@]5(C)CC[C@H](O)C(C)(C)[C@@H]5CC[C@]43C)[C@@H]12` [Compound 1, betulinic acid] yielded a half-inhibitory concentration (IC50) of 43.1 µM.
With `C=C(Cn1cc(-c2ccccc2)nn1)[C@@H]1CC[C@]2(C(=O)O)CC[C@]3(C)C(CCC4[C@@]5(C)CC[C@H](OC(C)=O)C(C)(C)C5CC[C@]43C)C12` (stereo partly drawn) [Compound 9a], the concentration for half-maximal inhibition (IC50) was determined as 19.1 µM.
Same read-out and setting: the same measure for `C=C(CN=[N+]=[N-])[C@@H]1CC[C@]2(C(=O)O)CC[C@]3(C)C(CCC4[C@@]5(C)CC[C@H](O)C(C)(C)C5CC[C@]43C)C12` (stereo partly drawn) [Compound 8, 30-azidobetulinic acid]: 23.9 µM.

In the next experiment the test system is BJ. In words: Cytotoxic MTS assay, BJ fibroblasts. The format is cell-based. The following applies: Homo sapiens, 72 h, non-tumor fibroblasts.
From the text: as §1, §2, §3
For `C=C(C)[C@@H]1CC[C@]2(C(=O)O)CC[C@]3(C)[C@H](CC[C@@H]4[C@@]5(C)CC[C@H](O)C(C)(C)[C@@H]5CC[C@]43C)[C@@H]12` [Compound 1, betulinic acid], the IC50 amounted to 37.6 µM.
Compound `C=C(Cn1cc(-c2ccccc2)nn1)[C@@H]1CC[C@]2(C(=O)O)CC[C@]3(C)C(CCC4[C@@]5(C)CC[C@H](OC(C)=O)C(C)(C)C5CC[C@]43C)C12` (stereo partly drawn) [Compound 9a] showed an IC50 of more than 50 µM.
Same read-out and setting: next, `C=C(CN=[N+]=[N-])[C@@H]1CC[C@]2(C(=O)O)CC[C@]3(C)C(CCC4[C@@]5(C)CC[C@H](O)C(C)(C)C5CC[C@]43C)C12` (stereo partly drawn) [Compound 8, 30-azidobetulinic acid]: 34 µM.

A further experiment relates to CEM-DNR. In words: Cytotoxic MTS assay, CEM-DNR. Particulars: Homo sapiens, 72 h, daunorubicin resistant subline of CCRF-CEM. The experiment is classed as cell-based.
From the text: as §1, §2, §3
In turn, `C=C(C)[C@@H]1CC[C@]2(C(=O)O)CC[C@]3(C)[C@H](CC[C@@H]4[C@@]5(C)CC[C@H](O)C(C)(C)[C@@H]5CC[C@]43C)[C@@H]12` [Compound 1, betulinic acid] showed a 50% inhibitory concentration (IC50) of 45.4 µM.
Take `C=C(Cn1cc(-c2ccccc2)nn1)[C@@H]1CC[C@]2(C(=O)O)CC[C@]3(C)C(CCC4[C@@]5(C)CC[C@H](OC(C)=O)C(C)(C)C5CC[C@]43C)C12` (stereo partly drawn) [Compound 9a]: inhibition was half-maximal at 19.5 µM (IC50).
The same measure, in the same setting: next, `C=C(CN=[N+]=[N-])[C@@H]1CC[C@]2(C(=O)O)CC[C@]3(C)C(CCC4[C@@]5(C)CC[C@H](O)C(C)(C)C5CC[C@]43C)C12` (stereo partly drawn) [Compound 8, 30-azidobetulinic acid]: 25.8 µM.

The test system of the next experiment is A549. In words: Cytotoxic MTS assay, A549. The experiment is classed as cell-based. Particulars: Homo sapiens, 72 h, lung adenocarcinoma.
From the text: as §1, §2, §3
The compound `C=C(C)[C@@H]1CC[C@]2(C(=O)O)CC[C@]3(C)[C@H](CC[C@@H]4[C@@]5(C)CC[C@H](O)C(C)(C)[C@@H]5CC[C@]43C)[C@@H]12` [Compound 1, betulinic acid] showed an IC50 of 43.4 µM.
The same measure, in the same setting: next, `C=C(Cn1cc(-c2ccccc2)nn1)[C@@H]1CC[C@]2(C(=O)O)CC[C@]3(C)C(CCC4[C@@]5(C)CC[C@H](OC(C)=O)C(C)(C)C5CC[C@]43C)C12` (stereo partly drawn) [Compound 9a]: 23.4 µM; `C=C(CN=[N+]=[N-])[C@@H]1CC[C@]2(C(=O)O)CC[C@]3(C)C(CCC4[C@@]5(C)CC[C@H](O)C(C)(C)C5CC[C@]43C)C12` (stereo partly drawn) [Compound 8, 30-azidobetulinic acid]: 23 µM.
